Earlier results as cited in US20030130179A1, “Methods for identifying therapeutic targets for treating infectious disease” (priority 2000, published 2003).

How the values were obtained:
[1] = biological target: thymidylate synthase (TS) (Homo sapiens, UniProt P04818)
Sequence of thymidylate synthase (TS) (P04818 2-313 limits assumed): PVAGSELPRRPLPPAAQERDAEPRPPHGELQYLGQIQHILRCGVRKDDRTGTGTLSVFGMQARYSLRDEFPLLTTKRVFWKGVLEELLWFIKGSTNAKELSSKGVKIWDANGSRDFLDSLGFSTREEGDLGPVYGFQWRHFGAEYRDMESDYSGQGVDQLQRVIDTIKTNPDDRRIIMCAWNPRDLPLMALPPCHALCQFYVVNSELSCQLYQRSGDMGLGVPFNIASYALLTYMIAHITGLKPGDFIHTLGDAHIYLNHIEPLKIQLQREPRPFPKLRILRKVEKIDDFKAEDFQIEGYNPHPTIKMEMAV

Structure (SMILES)	cytotoxicity profile ([1]; TS inhibitor, relation to TS expression (Copur et al., 1995))	toxicity to the host (colon and breast cancer; animal models)	efficacy (colon and breast cancer; colon and breast cancer animal models)	Cytotoxicity ([1]; model cell-based systems, relation to TS protein levels)
O=c1[nH]c(=O)n([C@@H]2O[C@H](CO)[C@@H](O)[C@H]2O)cc1F [5-fluorouridine]	more toxic to the cells which express low amounts of the enzyme			
COC(=O)[C@H](C)NP(=O)(OC[C@H]1O[C@@H](n2cc(/C=C/Br)c(=O)[nH]c2=O)C[C@@H]1O)Oc1ccccc1 (stereo partly shown) [NB1011]		little or no toxicity to the host	demonstrated efficacy against colon and breast cancer	proportional to TS protein levels
